Measurements reported in US8173771B2, “Humanin receptor or humanin-like polypeptide receptor” (Keio Univeristy, priority 2005, dated 2012).
Peptide text beside a SMILES is read from it.

Assays:
[1] = test system: neuronal cell death by AD-related insults; details: cited from earlier work
[2] = target: T1, human WSX-1, human CNTF receptor and human gp130 overexpressed in F11 cells (Homo sapiens, UniProt Q6UWB1); test: Immunofluorescence-based HN binding assay (1) after ectopic overexpression of receptor genes in F11 cells; details: large amount (10 μM) of non-labeled peptide
T1 construct: His; V5 (C); expressed in transfected cells; host or cells: F11 cells
T1 sequence (Q6UWB1 33-636): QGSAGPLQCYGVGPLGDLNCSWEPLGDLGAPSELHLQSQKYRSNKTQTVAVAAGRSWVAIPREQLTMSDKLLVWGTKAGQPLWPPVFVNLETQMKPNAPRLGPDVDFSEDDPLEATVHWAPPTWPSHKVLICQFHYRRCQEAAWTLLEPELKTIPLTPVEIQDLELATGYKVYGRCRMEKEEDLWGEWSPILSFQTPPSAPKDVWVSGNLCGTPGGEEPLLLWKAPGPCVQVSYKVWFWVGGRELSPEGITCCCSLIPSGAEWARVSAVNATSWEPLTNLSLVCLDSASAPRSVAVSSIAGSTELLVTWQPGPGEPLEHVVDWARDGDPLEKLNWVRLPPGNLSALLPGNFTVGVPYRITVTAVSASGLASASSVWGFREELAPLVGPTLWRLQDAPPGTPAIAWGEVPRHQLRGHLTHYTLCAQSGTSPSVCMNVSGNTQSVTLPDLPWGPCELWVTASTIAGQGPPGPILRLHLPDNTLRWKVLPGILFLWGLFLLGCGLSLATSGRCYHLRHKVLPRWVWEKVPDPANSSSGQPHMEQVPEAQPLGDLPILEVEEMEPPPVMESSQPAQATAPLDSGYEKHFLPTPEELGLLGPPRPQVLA
T1 sequence (P40189 23-918 partner): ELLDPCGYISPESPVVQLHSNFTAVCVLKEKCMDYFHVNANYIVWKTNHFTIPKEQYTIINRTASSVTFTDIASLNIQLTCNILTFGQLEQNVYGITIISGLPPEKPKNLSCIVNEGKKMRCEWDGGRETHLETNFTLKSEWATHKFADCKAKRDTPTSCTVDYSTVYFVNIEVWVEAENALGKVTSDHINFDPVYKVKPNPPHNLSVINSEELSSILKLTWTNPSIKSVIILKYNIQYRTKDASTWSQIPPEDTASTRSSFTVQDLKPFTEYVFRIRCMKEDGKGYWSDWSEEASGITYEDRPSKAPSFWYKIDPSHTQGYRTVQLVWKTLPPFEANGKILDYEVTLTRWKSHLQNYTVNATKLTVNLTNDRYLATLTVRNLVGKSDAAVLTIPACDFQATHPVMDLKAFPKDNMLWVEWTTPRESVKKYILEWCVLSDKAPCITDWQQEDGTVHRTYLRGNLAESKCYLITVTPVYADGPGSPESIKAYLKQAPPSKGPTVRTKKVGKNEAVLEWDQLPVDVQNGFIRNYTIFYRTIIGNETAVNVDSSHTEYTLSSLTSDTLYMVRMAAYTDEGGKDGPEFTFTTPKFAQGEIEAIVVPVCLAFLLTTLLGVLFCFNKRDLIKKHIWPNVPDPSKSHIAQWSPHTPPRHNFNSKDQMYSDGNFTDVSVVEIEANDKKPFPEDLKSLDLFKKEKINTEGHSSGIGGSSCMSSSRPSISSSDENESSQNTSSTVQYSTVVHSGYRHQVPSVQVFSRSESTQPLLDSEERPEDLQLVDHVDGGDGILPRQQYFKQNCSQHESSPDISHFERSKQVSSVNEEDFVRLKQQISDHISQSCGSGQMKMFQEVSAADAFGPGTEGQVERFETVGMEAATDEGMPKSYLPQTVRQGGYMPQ
Protocol: A) F11 cells were transfected with 0.5 μg of the pEF/BOS vector, pEF-mycHis CREME9, pEF-mycHishuman WSX-1, or pEF-V5-human CNTF-R in association with 0.5 μg of pCAG-human gp130, or transfected with 0.5 μg of pEF-mycHis human WSX-1 and pEF-V5-human CNTF-R and pCAG-human gp130. To keep the total amounts of transfected vectors to be 1.5 μg, an appropriate amount of the pEFBOS vector was added. The graphs show the results of a binding amount of the biotin-labeled HN to each transfected cell by the detection of immunofluorescence reaction. The protein expression by immunoblot analysis is shown below in photos.
B) F11 cells were transfected with 0.5 μg of pEF-myc His human CREME9 or pEF-mycHis human WSX-1 in association with 0.5 μg of pCAG-human gp130. For competition, 10 μM of non-labeled (cold) HNG or HNA was added for some experiments. Fluorescence signals were detected with a laser-scanning, confocal microscope LSM (Carl Zeiss, Germany) (right panels).
F11 cells (7×10^4/well in 6-well plates) were replated into 96-well plates (7×10^3 cells/well) at 24 hrs after transfection with indicated amounts of the plasmids encoding mycHis-WSX or V5-CNTF-R, and with PCAG-human gp130 if required. […] Immunofluorescence intensity was measured (excitation=485 nm, emission=535 nm) with a spectrofluorometer (Wallac1420 ARVOsx Multi Label Counter). […]

Molecule | HN activity of the mutant ([1]; negative control) | effect of unlabeled peptide on binding of HN to cells expressing WSX-1 and gp130 [2] | potency relative to HN [1]
C8A-Humanin (MAPRGFSALLLLTSEIDLPVKRRA) [HNA] | null activity | not | 
CC[C@H](C)[C@H](NC(=O)[C@H](CCC(=O)O)NC(=O)CNC(=O)[C@@H](NC(=O)[C@H](CC(C)C)NC(=O)[C@H](CC(C)C)NC(=O)[C@H](CC(C)C)NC(=O)[C@H](CC(C)C)NC(=O)[C@H](CS)NC(=O)[C@H](CO)NC(=O)[C@H](Cc1ccccc1)NC(=O)CNC(=O)[C@H](CCCNC(=N)N)NC(=O)[C@@H]1CCCN1C(=O)[C@H](C)NC(=O)[C@@H](N)CCSC)[C@@H](C)O)C(=O)N[C@@H](CC(=O)O)C(=O)N[C@@H](CC(C)C)C(=O)N1CCC[C@H]1C(=O)N[C@H](C(=O)N[C@@H](CCCCN)C(=O)N[C@@H](CCCNC(=N)N)C(=O)N[C@@H](CCCNC(=N)N)C(=O)N[C@@H](C)C(=O)O)C(C)C [HNG, S14 G-Humanin] (H-MAPRGFSCLLLLTGEIDLPVKRRA-OH; N-terminus and C-terminus assumed) |  | nullified | 1000 fold
